The values that follow are results of earlier work, collected in patent US20110195110A1, “UREA COMPOUNDS USEFUL IN THE TREATMENT OF CANCER” (priority 2005, published 2011).

For data set [1], the system named is Bcr-Abl E255K mutant. The following applies: biochemical assay.
The test system of data set [2] is Imatinib-resistant mutations of Bcr-Abl.
Data set [3] has as its system Bcr-Abl kinase. The conditions noted are these: greater potency than Imatinib.
Data set [4] relates to early phase CML. The conditions noted are these: patients with early phase CML.

In the case of `Cc1cn(-c2cc(NC(=O)c3ccc(C)c(Nc4nccc(-c5cccnc5)n4)c3)cc(C(F)(F)F)c2)cn1` [AMN-107], the “inhibition of the E255K mutant” value in data set [1] was “somewhat weak inhibition”. Further, the “inhibition of Imatinib-resistant mutations” value in data set [2] is listed as “inhibit most Imatinib-resistant mutations, except for T3151”. Moreover, the “potency of inhibition of Bcr-Abl kinase activity relative to Imatinib” value in data set [3] is on record as 20 fold.

With `Cc1ccc(NC(=O)c2ccc(CN3CCN(C)CC3)cc2)cc1Nc1nccc(-c2cccnc2)n1` [Imatinib], the “response at haematological and cytogenetic levels” value in data set [4] is “greater than 90%”.
